Experiments:
MMP-13 [1] = biological target: T1, MMP-13 (Homo sapiens, UniProt P45452); experiment: Proteolytic digestion of growth factors by purified MMP-13; assay type: biochemical; set-up: key: significant (represented as ‘+’); a score from significant (represented as ‘+’) to major (represented as ‘+++’); major (represented as ‘+++’); Reduction of parent growth factor not accompanied by the appearance of degradation products is represented by (+); conditions: purified MMP-13, 37° C., Western blot
T1 construct: made in house
Procedure: (§11) The extent of proteolysis of the growth factors was assayed by incubating TGF-β2, VEGF, PDGF-BB and KGF-2 with the proteases uPA, plasmin, MMP-3 and MMP-13 in assay buffer (either uPA/plasmin buffer, 50 mM tris-HCl, pH 7.4 or MMP assay buffer, 100 mM Tris, 10 mM NaCl, 10 mM CaCl2, 0.05% (w/v) Brij 35, pH 7.5). […] The growth factors were added to the incubation mixture at a final concentration of 7.9 mg/ml, unless otherwise stated.
(§12) The effects of uPA were determined by incubation at a typical final concentration of 25 μg/ml (1500 U/ml) with each growth factor. The effects of plasmin were determined at a typical final concentration of 0.1 mg/ml by incubation with the individual growth factors in assay buffer. MMP-3 and -13 were incubated at a typical final concentration of 10 nM with the growth factors in assay buffer. […] All incubations were performed in siliconised tubes (Sigma Aldrich, UK).
(§13) All assays were carried out at 37° C. and enzymes were pre-incubated for 15 minutes with or without inhibitor as appropriate, prior to addition of growth factors. After the addition of growth factor, the incubation mixtures were divided into aliquots in siliconised tubes for each time point used. Incubations were carried out over a time course typically of 24 hours, unless otherwise stated. […]

Plasmin = biological target: T2, Plasmin (Homo sapiens, UniProt P00747); experiment: Proteolytic digestion of growth factors by purified plasmin; assay type: biochemical; set-up: key: significant (represented as ‘+’); a score from significant (represented as ‘+’) to major (represented as ‘+++’); major (represented as ‘+++’); Reduction of parent growth factor not accompanied by the appearance of degradation products is represented by (+); conditions: 37° C., Western blot
T2 construct: Human plasmin, 2 mg/vial (Quadratech, 810665) was reconstituted to 1 mg/ml in buffer; purchased Quadratech 810665
T2 sequence (P00747 581-810 limits assumed): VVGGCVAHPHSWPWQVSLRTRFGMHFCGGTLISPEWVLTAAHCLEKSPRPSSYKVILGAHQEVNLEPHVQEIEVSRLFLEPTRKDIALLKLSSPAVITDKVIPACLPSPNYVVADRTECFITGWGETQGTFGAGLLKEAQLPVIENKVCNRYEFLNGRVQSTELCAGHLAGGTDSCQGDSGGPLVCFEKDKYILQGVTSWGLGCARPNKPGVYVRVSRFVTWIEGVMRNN
T2 sequence (P00747 97-580 partner limits assumed): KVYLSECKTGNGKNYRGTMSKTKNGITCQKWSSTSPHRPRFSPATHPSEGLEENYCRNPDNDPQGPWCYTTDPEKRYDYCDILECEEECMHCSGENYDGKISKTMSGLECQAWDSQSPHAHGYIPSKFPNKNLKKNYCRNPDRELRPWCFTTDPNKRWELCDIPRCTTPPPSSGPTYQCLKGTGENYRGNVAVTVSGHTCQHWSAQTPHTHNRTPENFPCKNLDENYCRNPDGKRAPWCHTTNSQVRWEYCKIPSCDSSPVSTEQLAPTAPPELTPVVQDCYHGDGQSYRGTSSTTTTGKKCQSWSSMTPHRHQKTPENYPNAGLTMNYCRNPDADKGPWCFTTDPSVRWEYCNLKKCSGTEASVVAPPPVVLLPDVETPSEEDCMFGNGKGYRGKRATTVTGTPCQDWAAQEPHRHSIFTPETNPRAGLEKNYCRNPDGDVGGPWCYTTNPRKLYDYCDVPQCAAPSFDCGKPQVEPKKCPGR
Procedure: as §11, §12, §13

MMP-3 [2] = biological target: T3, MMP-3 (Homo sapiens, UniProt P08254); experiment: Proteolytic digestion of growth factors by purified MMP-3; assay type: biochemical; set-up: key: significant (represented as ‘+’); a score from significant (represented as ‘+’) to major (represented as ‘+++’); major (represented as ‘+++’); Reduction of parent growth factor not accompanied by the appearance of degradation products is represented by (+); conditions: purified MMP-3, 37° C., Western blot
T3 construct: made in house
T3 sequence (P08254 100-272 limits assumed): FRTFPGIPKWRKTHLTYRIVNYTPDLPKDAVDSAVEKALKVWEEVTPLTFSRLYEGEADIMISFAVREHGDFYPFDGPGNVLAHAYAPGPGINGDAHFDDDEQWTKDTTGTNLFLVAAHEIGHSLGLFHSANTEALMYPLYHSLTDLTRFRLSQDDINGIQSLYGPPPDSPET
Procedure: as §11, §12, §13

uPA = uPA (Homo sapiens, UniProt P00749); experiment: Proteolytic digestion of growth factors by purified uPA; assay type: biochemical; set-up: High molecular weight human urokinase from urine, 3000 IU/vial (Calbiochem, 672081); purchased Calbiochem 672081; host or cells: human urine; key: significant (represented as ‘+’); a score from significant (represented as ‘+’) to major (represented as ‘+++’); major (represented as ‘+++’); Reduction of parent growth factor not accompanied by the appearance of degradation products is represented by (+); conditions: 37° C., Western blot
Procedure: as §11, §12, §13

[3] = biological target: T4, catalytic domain human MMP-14 (Homo sapiens, UniProt P50281); experiment: MMP-14 fluorogenic inhibition assay; assay type: biochemical; conditions: read-out: Calculated Ki(nM) MMP-14
T4 construct: made in house
Procedure: (§1) All enzymes were pre-activated at 37° C. with aminophenylmercuric acetate (APMA) or trypsin before being made up to the final concentrations used in the assay. MMP-1 (30 nM) was activated with 0.93 mM APMA for 20 minutes, MMP-2 (30 nM) was activated with 1.32 mM APMA for 1 hour, MMP-3 (1010 nM) was activated with 1.81 mM APMA for 3 hours or heat activated at 55° C. for three hours, MMP-9 (100 nM) was activated with 2 mM APMA for 2 hours, human MMP-13 (100 nM) was activated with 2 mM APMA for 2 hours, and MMP-14 (900 nM) was activated with 0.9 ng/ml trypsin for 25 minutes, followed by the addition of 4.5 ng/ml trypsin inhibitor.
(§2) For MMP-1, the assay buffer used was 50 mM Tris, 200 mM NaCl, 5 mM CaCl2, 20 μM ZnCl2, 0.05% (w/v) Brij 35, pH 7.5. […] For MMP-13, the assay buffer used was 50 mM Tris, pH 7.5, 200 mM NaCl, 5 mM CaCl2, […] and 0.02% (w/v) Brij 35. For MMP-14, the assay buffer used was 50 mM Tris, 100 mM NaCl, 10 mM CaCl2, 0.25% (w/v) Brij 35, pH 7.5.
MMP-14 inhibition was assayed by incubating activated catalytic domain human MMP-14 at 1 nM in assay buffer with 10 μM Mca-Pro-Leu-Gly-Leu-Dpa-Ala-Arg-NH2 and six concentrations of inhibitor. The incubation was performed at 37° C. for 60 minutes.
(§3) The final assay concentrations of inhibitors used in the MMP-1 assays to determine Ki were 50, 40, 30, 20, 10 and 5 μM. For MMP-2, the final assay concentrations of inhibitors used were 1000, 800, 600, 400, 200 and 100 nM. For MMP-3, the final assay concentrations of inhibitors used were 5, 4, 3, 2, 1 and 0.5 nM. For MMP-9 and MMP-14, the final assay concentrations of inhibitors used were 5, 4, 3, 2, 1 and 0.5 μM.
(§4) All assays were carried out in a black 96-well plate with a final volume of 100 μl in each well. Inhibitors were dissolved in dimethylsulphoxide (DMSO) to 1 mM. […] For MMP-2, MMP-3, MMP-9 and MMP-14, fluorescence was read every 2 minutes at […] and 393 nm γem for 1 hour using a Fluorostar fluorimeter (BMG) with BIOLISE software. For MMP-1 assays, the filters used were 355 nm γex and 440 nm γem; fluorescence was read every 2 minutes for 1 hour. […]

[4] = biological target: T5, catalytic domain of human MMP-9 (Homo sapiens, UniProt P14780); experiment: MMP-9 fluorogenic inhibition assay; assay type: biochemical; conditions: read-out: Calculated Ki(nM) MMP-9
T5 sequence (P14780 with tags, fused parts or gaps DEL216-390 limits assumed): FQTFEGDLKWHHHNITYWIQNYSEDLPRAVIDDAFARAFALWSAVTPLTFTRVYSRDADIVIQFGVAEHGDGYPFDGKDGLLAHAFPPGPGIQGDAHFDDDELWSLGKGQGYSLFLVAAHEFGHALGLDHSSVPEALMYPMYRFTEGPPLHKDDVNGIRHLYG
Procedure: as §1, §2
(§5) MMP-2, MMP-3 and MMP-9 inhibition was assayed by incubating activated catalytic domain of human MMP-2, MMP-3 and MMP-9 at 1 nM in assay buffer with 5 μM substrate Mca-Arg-Pro-Lys-Pro-Tyr-Ala-Nva-Trp-Met-Lys(Dnp)-NH2, and six different concentrations of inhibitor. The incubation was performed at 37° C. for 60 minutes.
as §3
as §4, with “well.” for “well. Inhibitors were dissolved in dimethylsulphoxide (DMSO) to 1 mM.”

MMP-3 [5] = biological target: T3, MMP-3; experiment: Reduction of MMP-3-catalysed degradation of KGF-2; assay type: biochemical; conditions: MMP-3 / KGF-2, read-out: Percentage inhibition of proteolysis
[6] = biological target: T6, catalytic domain human MMP-1 (Homo sapiens, UniProt P03956); experiment: MMP-1 fluorogenic inhibition assay; assay type: biochemical; conditions: * limited by compound solubility; read-out: Calculated Ki(nM) MMP-1
T6 construct: made in house
T6 sequence (P03956 100-269 limits assumed): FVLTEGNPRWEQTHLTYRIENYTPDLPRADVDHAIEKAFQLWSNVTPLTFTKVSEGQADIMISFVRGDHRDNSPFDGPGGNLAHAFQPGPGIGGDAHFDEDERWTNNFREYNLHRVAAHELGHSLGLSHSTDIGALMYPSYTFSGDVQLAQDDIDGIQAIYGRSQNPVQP
Procedure: (§6) All enzymes were pre-activated at 37° C. with aminophenylmercuric acetate (APMA) or trypsin before being made up to the final concentrations used in the assay.
(§7) For MMP-1, the assay buffer used was 50 mM Tris, 200 mM NaCl, 5 mM CaCl2, 20 μM ZnCl2, 0.05% (w/v) Brij 35, pH 7.5. […] For MMP-13, the assay buffer used was 50 mM Tris, pH 7.5, 200 mM NaCl, 5 mM CaCl2, […] and 0.02% (w/v) Brij 35.
The incubation was performed at 37° C. for 60 minutes.
(§8) For MMP-2, the final assay concentrations of inhibitors used were 1000, 800, 600, 400, 200 and 100 nM. For MMP-3, the final assay concentrations of inhibitors used were 5, 4, 3, 2, 1 and 0.5 nM. For MMP-9 and MMP-14, the final assay concentrations of inhibitors used were 5, 4, 3, 2, 1 and 0.5 μM.
(§9) All assays were carried out in a black 96-well plate with a final volume of 100 μl in each well. Inhibitors were dissolved in dimethylsulphoxide (DMSO) to 1 mM. Solutions were then serially diluted in buffer to give the final concentrations shown.
(§10) These were estimated using the following equation: IC50=(Ki*[…], where S is the substrate concentration and Km the Michaelis-Menton coefficient. Serine Protease Assays

[7] = biological target: catalytic domain of human MMP-2 (Homo sapiens, UniProt P08253); experiment: MMP-2 fluorogenic inhibition assay; assay type: biochemical; conditions: read-out: Calculated Ki(nM) MMP-2
Chain of catalytic domain of human MMP-2 (P08253 with tags, fused parts or gaps DEL222-396 limits assumed): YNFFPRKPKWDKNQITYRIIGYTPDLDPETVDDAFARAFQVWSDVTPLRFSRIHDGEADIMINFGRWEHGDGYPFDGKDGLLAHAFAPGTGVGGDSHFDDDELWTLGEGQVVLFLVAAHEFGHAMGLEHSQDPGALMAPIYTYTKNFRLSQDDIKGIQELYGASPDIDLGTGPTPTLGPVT
Procedure: as §6, §7, §5, §8
All assays were carried out in a black 96-well plate with a final volume of 100 μl in each well. Inhibitors were dissolved in dimethylsulphoxide (DMSO) to 1 mM. Solutions were then serially diluted in buffer to give the final concentrations shown. […]

MMP-13 [8] = biological target: T1, MMP-13; experiment: MMP-13 fluorogenic inhibition assay; assay type: biochemical; conditions: estimated from IC50; read-out: Calculated Ki(nM) MMP-13
Procedure: as §6, §7
Assays were carried out in 96-well microfluor plates. All incubations were performed at 37° C. and fluorescence readings determined at 360 nm γex and 450 nm γem.
For the assay, the fluorescence values at time zero were subtracted from those determined at 15 or 20 minutes. The % response was then calculated by comparison to positive controls (enzyme, buffer and substrate in the absence of inhibitor). IC50 values were then determined using FitCurve (Excel Tessella Stats add-in).
as §10

[9] = biological target: T7, catalytic domain of human MMP-3 (Homo sapiens, UniProt P08254); experiment: MMP-3 fluorogenic inhibition assay; assay type: biochemical
T7 construct: made in house
T7 sequence (P08254 100-272 limits assumed): as the sequence (P08254 100-272 limits assumed) above
Procedure: as §6, §7, §5, §8, §9, §10

[10] = in vivo; cited from earlier work

With “TGF-β2: "Human recombinant TGF-β2 and KGF-2 were obtained from R&D Systems"; growth factor” the “Extent of hydrolysis of growth factor by MMP-13” value (MMP-13 [1]) was “+”, the “Extent of hydrolysis of growth factor by Plasmin” value (Plasmin) was “++” and the “Extent of hydrolysis of growth factor by MMP-3” value (MMP-3 [2]) was “(+)”. The “Extent of hydrolysis of growth factor by uPA” value (uPA) was “+”.
For “PDGF-BB: "human recombinant PDGF-BB" obtained from Sigma; growth factor”, the “Extent of hydrolysis of growth factor by MMP-13” value (MMP-13 [1]) was “(+)”, the “Extent of hydrolysis of growth factor by Plasmin” value (Plasmin) was “+++” and the “Extent of hydrolysis of growth factor by MMP-3” value (MMP-3 [2]) was “+”. For the same molecule, the “Extent of hydrolysis of growth factor by uPA” value (uPA) was “++”.
Molecule `Cc1cc(C2CCN(S(=O)(=O)C(C)(C)C(=O)NO)CC2)ccc1-c1cccc(OCCO)c1` [compound 9470] has a Ki [3] of 1710 nM, a Ki [4] of 406 nM and an inhibition at 0.01 µM (MMP-3 [5]; inhibitor 0.01 μM) of 24.5%. The inhibition at 0.1 µM (MMP-3 [5]; inhibitor 0.1 μM) was 64.5%, the inhibition at 1 µM (MMP-3 [5]; inhibitor 1 μM) was 72.2% and the inhibition at 10 µM (MMP-3 [5]; inhibitor 10 μM) was 91.1%. For the same molecule, the Ki [6] was 1780 nM, the Ki [7] was 269 nM and the Ki (MMP-13 [8]) was 0.95 nM. The “Selectivity among MMPs (in words)” value ([9]; from Ki values of Table 3 (MMP-1, -2, -3, -9, -13, -14)) was “selective dual inhibitor of MMP-3 and MMP-13” and the Ki ([9]; read-out: Calculated Ki(nM) MMP-3) was 1 nM.
For transforming growth factor β3 [TGFβ3], the “half life after injection into venous ulcers” value [10] is listed as “approximately 30 minutes”.

Source: patent publication US20050026836A1, “Composition for the treatment of damaged tissue” (priority 1999, published 2005)
